Reference: ChEMBL document CHEMBL1909046, “DrugMatrix in vitro pharmacology data”
Where a SMILES comes first, the peptide text is derived from it. Bridges are numbered along the chain shown (N, C = ends). [ ]: non-standard residue; d: D form. The star is where a group is joined. Ileψ(thiazoline)Cys = CC[C@H](C)[C@H](N)C1=N[C@H](C(=O)*)CS1; dOrn = NCCC[C@@H](N)C(=O)O

Assays:
[1] = molecular target: 5-hydroxytryptamine receptor 4 (Cavia porcellus, UniProt O70528); assay type: cell membranes, Dunkin-Hartley, Striatum, Membrane; note: in other assays of this panel Not Active means under 50% inhibition at 10 µM
[2] = DRUGMATRIX: Imidazoline I2, Central radioligand binding (ligand: [3H] Idazoxan); assay type: cell membranes, Rattus norvegicus, Wistar, Cerebral cortex, Membrane; settings: Not Active = under 50% inhibition at 10 µM
[3] = DRUGMATRIX: Tumor Necrosis Factor (TNF), Non-Selective radioligand binding (ligand: [125I] TNF-alpha); assay type: cell membranes, Membrane; settings: u-937; Not Active = under 50% inhibition at 10 µM
[4] = molecular target: T1, Amine oxidase [flavin-containing] A (Homo sapiens, UniProt P21397); assay: DRUGMATRIX: Monoamine Oxidase MAO-A enzyme inhibition (substrate: Kynuramine); parameters: species or system BTI-TN-5B1-4; settings: bti-tn-5b1-4; Not Active = under 50% inhibition at 10 µM
T1 sequence (P21397 whole entry): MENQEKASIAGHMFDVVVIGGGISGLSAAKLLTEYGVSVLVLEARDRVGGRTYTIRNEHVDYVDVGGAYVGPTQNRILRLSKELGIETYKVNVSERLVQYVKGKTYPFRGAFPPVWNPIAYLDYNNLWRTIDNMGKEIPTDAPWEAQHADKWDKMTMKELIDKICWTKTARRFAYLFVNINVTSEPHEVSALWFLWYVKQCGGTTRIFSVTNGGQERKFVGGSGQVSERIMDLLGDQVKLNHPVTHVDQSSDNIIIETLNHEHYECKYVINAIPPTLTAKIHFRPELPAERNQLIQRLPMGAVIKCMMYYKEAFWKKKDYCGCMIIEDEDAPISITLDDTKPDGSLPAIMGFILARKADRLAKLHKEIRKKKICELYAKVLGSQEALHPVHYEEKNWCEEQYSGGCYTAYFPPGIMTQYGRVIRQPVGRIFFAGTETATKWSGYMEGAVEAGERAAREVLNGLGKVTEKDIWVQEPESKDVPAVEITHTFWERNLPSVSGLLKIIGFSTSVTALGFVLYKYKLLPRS

Sequence of 5-hydroxytryptamine receptor 4 (O70528 whole entry): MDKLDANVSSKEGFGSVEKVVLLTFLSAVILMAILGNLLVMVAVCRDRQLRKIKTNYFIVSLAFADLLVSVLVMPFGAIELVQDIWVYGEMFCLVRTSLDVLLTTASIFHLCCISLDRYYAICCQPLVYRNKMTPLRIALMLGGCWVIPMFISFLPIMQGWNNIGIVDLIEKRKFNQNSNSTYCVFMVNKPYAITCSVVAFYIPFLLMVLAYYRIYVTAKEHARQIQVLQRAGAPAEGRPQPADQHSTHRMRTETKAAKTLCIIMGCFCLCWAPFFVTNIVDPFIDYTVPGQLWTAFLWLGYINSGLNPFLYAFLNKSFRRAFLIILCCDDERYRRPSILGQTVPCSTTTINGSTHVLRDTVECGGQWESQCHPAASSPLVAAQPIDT

COC1=CC(=O)C[C@@H](C)[C@]12Oc1c(Cl)c(OC)cc(OC)c1C2=O [GRISEOFULVIN]
Not Active: IC50 [1] | IC50 [2] | Ki [2] | IC50 [3] | Ki [3] | IC50 [4]

CC[C@H](C)[C@H](N)C1=N[C@H](C(=O)N[C@@H](CC(C)C)C(=O)N[C@H](CCC(=O)O)C(=O)N[C@H](C(=O)N[C@H]2CCCCNC(=O)[C@H](CC(N)=O)NC(=O)[C@@H](CC(=O)O)NC(=O)[C@H](Cc3cnc[nH]3)NC(=O)[C@@H](Cc3ccccc3)NC(=O)[C@H]([C@@H](C)CC)NC(=O)[C@@H](CCCN)NC2=O)[C@@H](C)CC)CS1 [BACITRACIN] ({Ileψ(thiazoline)Cys}-L[dE]IK[dOrn]I[dF]H[dD]N; lactam 4-C)
Not Active: IC50 [1] | IC50 [2] | Ki [2] | IC50 [3] | Ki [3] | IC50 [4]

CCCC[C@@H](CC)COC(=O)c1ccccc1C(=O)OC[C@@H](CC)CCCC [BIS(2-ETHYLHEXYL)PHTHALATE]
Not Active: IC50 [1] | IC50 [2] | Ki [2] | IC50 [3] | Ki [3] | IC50 [4]

O=P1(NCCCl)OCCCN1CCCl (stereo not given) [IFOSFAMIDE]
Not Active: IC50 [1] | IC50 [2] | Ki [2] | IC50 [3] | Ki [3] | IC50 [4]

Nc1nc(=O)[nH]cc1F [FLUCYTOSINE]
Not Active: IC50 [1] | IC50 [2] | Ki [2] | IC50 [3] | Ki [3] | IC50 [4]

Nc1nc2c(ncn2COC(CO)CO)c(=O)[nH]1 [GANCICLOVIR]
Not Active: IC50 [1] | IC50 [2] | Ki [2] | IC50 [3] | Ki [3] | IC50 [4]

CC1=Nc2ccc(Cl)cc2S(=O)(=O)N1 [DIAZOXIDE]
Not Active: IC50 [1] | IC50 [2] | Ki [2] | IC50 [3] | Ki [3] | IC50 [4]

CC(C)(Oc1ccc(CCNC(=O)c2ccc(Cl)cc2)cc1)C(=O)O [BEZAFIBRATE]
Not Active: IC50 [1] | IC50 [2] | Ki [2] | IC50 [3] | Ki [3] | IC50 [4]

CC(C)n1c(/C=C/C(O)CC(O)CC(=O)O)c(-c2ccc(F)cc2)c2ccccc21 (stereo not given) [FLUVASTATIN]
Not Active: IC50 [1] | IC50 [2] | Ki [2] | IC50 [3] | Ki [3] | IC50 [4]

CCCCOC(=O)c1ccc(N)cc1 [BUTAMBEN]
Not Active: IC50 [1] | IC50 [2] | Ki [2] | IC50 [3] | Ki [3] | IC50 [4]
